{"source": "patent US12459922B2", "about": "(Gilead Sciences, Inc., priority 2022, dated 2025)", "data": [{"tested_on": "endogenous cellular STAT1 (phosphorylated at Tyr701) in NCI-H1373 cells", "assay": "Phospho-STAT1 (Tyr701) LANCE Ultra TR-FRET Detection Assay", "type": "cell-based", "conditions": "Homo sapiens, NCI-H1373, 48 h, phospho-STAT1 (Tyr701) induction, read-out: NH1373 pSTAT1 EC50", "units": {"EC50": "nM"}, "values": [{"molecule": "O=c1[nH]ncc(N[C@H]2CCC[C@@H](Cn3ccc4cc(-c5nccc(C(F)(F)F)n5)c(F)cc4c3=O)C2)c1C(F)(F)F", "note": "[Example 272, 7-fluoro-2-(((1R,3S)-3-((6-oxo-5-(trifluoromethyl)-1,6-dihydropyridazin-4-yl)amino)cyclohexyl)methyl)-6-(4-(trifluoromethyl)pyrimidin-2-yl)isoquinolin-1(2H)-one]", "EC50": 10000}, {"molecule": "O=c1[nH]ncc(N[C@H]2CCC[C@@H](Cn3ccc4nc(-c5ccc(C(F)(F)F)cn5)ccc4c3=O)C2)c1C(F)(F)F", "note": "[Example 273, 6-(((1R,3S)-3-((6-oxo-5-(trifluoromethyl)-1,6-dihydropyridazin-4-yl)amino)cyclohexyl)methyl)-2-(5-(trifluoromethyl)pyridin-2-yl)-1,6-naphthyridin-5(6H)-one]", "EC50": 10000}, {"molecule": "CNc1cnc(-c2cc3ccn(C[C@@H]4CCC[C@H](Nc5cn[nH]c(=O)c5C(F)(F)F)C4)c(=O)c3cc2F)cn1", "note": "[Example 274, 7-fluoro-6-(5-(methylamino)pyrazin-2-yl)-2-(((1R,3S)-3-((6-oxo-5-(trifluoromethyl)-1,6-dihydropyridazin-4-yl)amino)cyclohexyl)methyl)isoquinolin-1(2H)-one]", "EC50": 78}, {"molecule": "NC1(c2cnc(-c3cc4ccn(C[C@@H]5CCC[C@H](Nc6cn[nH]c(=O)c6C(F)(F)F)C5)c(=O)c4cc3F)cn2)COC1", "note": "[Example 275, 6-(5-(3-aminooxetan-3-yl)pyrazin-2-yl)-7-fluoro-2-(((1R,3S)-3-((6-oxo-5-(trifluoromethyl)-1,6-dihydropyridazin-4-yl)amino)cyclohexyl)methyl)isoquinolin-1(2H)-one]", "EC50": 200}, {"molecule": "Cc1nc(-c2cc3ccn(C[C@@H]4CCC[C@H](Nc5cn[nH]c(=O)c5C(F)(F)F)C4)c(=O)c3cc2F)nc(N)c1Cl", "note": "[Example 276, 6-(4-amino-5-chloro-6-methylpyrimidin-2-yl)-7-fluoro-2-(((1R,3S)-3-((6-oxo-5-(trifluoromethyl)-1,6-dihydropyridazin-4-yl)amino)cyclohexyl)methyl)isoquinolin-1(2H)-one]", "EC50": 10.3}, {"molecule": "CCNc1cnc(-c2cc3ccn(C[C@@H]4CCC[C@H](Nc5cn[nH]c(=O)c5C(F)(F)F)C4)c(=O)c3cc2F)cn1", "note": "[Example 277, 6-(5-(ethylamino)pyrazin-2-yl)-7-fluoro-2-(((1R,3S)-3-((6-oxo-5-(trifluoromethyl)-1,6-dihydropyridazin-4-yl)amino)cyclohexyl)methyl)isoquinolin-1(2H)-one]", "EC50": 348}, {"molecule": "COc1cnc(-c2cc3ccn(C[C@@H]4CCC[C@H](Nc5cn[nH]c(=O)c5C(F)(F)F)C4)c(=O)c3c(F)c2F)nc1N", "note": "[Example 278, 6-(4-amino-5-methoxypyrimidin-2-yl)-7,8-difluoro-2-(((1R,3S)-3-((6-oxo-5-(trifluoromethyl)-1,6-dihydropyridazin-4-yl)amino)cyclohexyl)methyl)isoquinolin-1(2H)-one]", "EC50": 4.38}, {"molecule": "O=c1[nH]ncc(N[C@H]2CCC[C@@H](Cn3ccc4cc(-c5ccc(C(F)(F)CO)cn5)c(F)cc4c3=O)C2)c1C(F)(F)F", "note": "[Example 279, 6-(5-(1,1-difluoro-2-hydroxyethyl)pyridin-2-yl)-7-fluoro-2-(((1R,3S)-3-((6-oxo-5-(trifluoromethyl)-1,6-dihydropyridazin-4-yl)amino)cyclohexyl)methyl)isoquinolin-1(2H)-one]", "EC50": 15.5}, {"molecule": "O=c1[nH]ncc(N[C@H]2CCC[C@@H](Cn3ccc4cc(-c5ccc(Cl)cn5)c(F)cc4c3=O)C2)c1C(F)(F)F", "note": "[Example 280, 6-(5-chloropyridin-2-yl)-7-fluoro-2-(((1R,3S)-3-((6-oxo-5-(trifluoromethyl)-1,6-dihydropyridazin-4-yl)amino)cyclohexyl)methyl)isoquinolin-1(2H)-one]", "EC50": 34.8}, {"molecule": "O=c1[nH]ncc(N[C@H]2CCC[C@@H](Cn3c(=O)[nH]c4cc(-c5ncc(C(F)(F)F)cn5)c(F)cc4c3=O)C2)c1C(F)(F)F", "note": "[Example 281, 6-fluoro-3-(((1R,3S)-3-((6-oxo-5-(trifluoromethyl)-1,6-dihydropyridazin-4-yl)amino)cyclohexyl)methyl)-7-(5-(trifluoromethyl)pyrimidin-2-yl)quinazoline-2,4(1H,3H)-dione]", "EC50": 2.87}, {"molecule": "Nc1nc(-c2cc3ccn(C[C@@H]4CCC[C@H](Nc5cn[nH]c(=O)c5C(F)(F)F)C4)c(=O)c3cc2F)nc(C2CC2)c1Cl", "note": "[Example 282, 6-(4-amino-5-chloro-6-cyclopropylpyrimidin-2-yl)-7-fluoro-2-(((1R,3S)-3-((6-oxo-5-(trifluoromethyl)-1,6-dihydropyridazin-4-yl)amino)cyclohexyl)methyl)isoquinolin-1(2H)-one]", "EC50": 80.1}, {"molecule": "CC(C)(O)c1ccc(-c2cc3ccn(C[C@@H]4CCC[C@H](Nc5cn[nH]c(=O)c5C(F)(F)F)C4)c(=O)c3cc2F)nc1", "note": "[Example 283, 7-fluoro-6-(5-(2-hydroxypropan-2-yl)pyridin-2-yl)-2-(((1R,3S)-3-((6-oxo-5-(trifluoromethyl)-1,6-dihydropyridazin-4-yl)amino)cyclohexyl)methyl)isoquinolin-1(2H)-one]", "EC50": 113}, {"molecule": "CC(C)(O)c1cnc(-c2cc3ccn(C[C@@H]4CCC[C@H](Nc5cn[nH]c(=O)c5C(F)(F)F)C4)c(=O)c3cc2F)nc1", "note": "[Example 284, 7-fluoro-6-(5-(2-hydroxypropan-2-yl)pyrimidin-2-yl)-2-(((1R,3S)-3-((6-oxo-5-(trifluoromethyl)-1,6-dihydropyridazin-4-yl)amino)cyclohexyl)methyl)isoquinolin-1(2H)-one]", "EC50": 51.7}, {"molecule": "O=c1[nH]ncc(N[C@H]2CCC[C@@H](Cn3ccc4cc(-c5ncc(C(F)(F)F)cn5)cc(F)c4c3=O)C2)c1C(F)(F)F", "note": "[Example 285, 8-fluoro-2-(((1R,3S)-3-((6-oxo-5-(trifluoromethyl)-1,6-dihydropyridazin-4-yl)amino)cyclohexyl)methyl)-6-(5-(trifluoromethyl)pyrimidin-2-yl)isoquinolin-1(2H)-one]", "EC50": 78.7}, {"molecule": "COc1cnc(-c2cc3ccn(CCC[C@H](C)Nc4cn[nH]c(=O)c4C(F)(F)F)c(=O)c3cc2F)nc1N1CC(O)(C(F)(F)F)C1", "note": "[Example 286, (S)-7-fluoro-6-(4-(3-hydroxy-3-(trifluoromethyl)azetidin-1-yl)-5-methoxypyrimidin-2-yl)-2-(4-((6-oxo-5-(trifluoromethyl)-1,6-dihydropyridazin-4-yl)amino)pentyl)isoquinolin-1(2H)-one]", "EC50": 61.9}, {"molecule": "COc1cnc(-c2cc3ncn(CCC[C@H](C)Nc4cn[nH]c(=O)c4C(F)(F)F)c(=O)c3cc2F)nc1N1CC(O)(C(F)(F)F)C1", "note": "[Example 287, (S)-6-fluoro-7-(4-(3-hydroxy-3-(trifluoromethyl)azetidin-1-yl)-5-methoxypyrimidin-2-yl)-3-(4-((6-oxo-5-(trifluoromethyl)-1,6-dihydropyridazin-4-yl)amino)pentyl)quinazolin-4(3H)-one]", "EC50": 137}, {"molecule": "C[C@@H]1[C@H](O)CN1c1nc(-c2cc3ncn(CCC[C@H](C)Nc4cn[nH]c(=O)c4C(F)(F)F)c(=O)c3cc2F)ncc1C(F)(F)F", "note": "[Example 288, 6-fluoro-7-(4-((2R,3R)-3-hydroxy-2-methylazetidin-1-yl)-5-(trifluoromethyl)pyrimidin-2-yl)-3-((S)-4-((6-oxo-5-(trifluoromethyl)-1,6-dihydropyridazin-4-yl)amino)pentyl)quinazolin-4(3H)-one]", "EC50": 10.5}, {"molecule": "C[C@@H](CCCn1ccc2cc(-c3ncc(C(F)(F)F)cc3C#N)c(F)cc2c1=O)Nc1cn[nH]c(=O)c1C(F)(F)F", "note": "[Example 289, (S)-2-(7-fluoro-1-oxo-2-(4-((6-oxo-5-(trifluoromethyl)-1,6-dihydropyridazin-4-yl)amino)pentyl)-1,2-dihydroisoquinolin-6-yl)-5-(trifluoromethyl)nicotinonitrile]", "EC50": 108}, {"molecule": "C[C@@H](CCCn1ccc2cc(-c3nc(N)c(C(F)(F)F)cc3C#N)c(F)cc2c1=O)Nc1cn[nH]c(=O)c1C(F)(F)F", "note": "[Example 290, (S)-6-amino-2-(7-fluoro-1-oxo-2-(4-((6-oxo-5-(trifluoromethyl)-1,6-dihydropyridazin-4-yl)amino)pentyl)-1,2-dihydroisoquinolin-6-yl)-5-(trifluoromethyl)nicotinonitrile]", "EC50": 21.3}, {"molecule": "C[C@@H](CCCn1ccc2cc(-c3nc(N)ccc3C#N)c(F)cc2c1=O)Nc1cn[nH]c(=O)c1C(F)(F)F", "note": "[Example 291, (S)-6-amino-2-(7-fluoro-1-oxo-2-(4-((6-oxo-5-(trifluoromethyl)-1,6-dihydropyridazin-4-yl)amino)pentyl)-1,2-dihydroisoquinolin-6-yl)nicotinonitrile]", "EC50": 709}, {"molecule": "C[C@@H](CCCn1ccc2cc(-c3ncc4ccsc4n3)c(F)cc2c1=O)Nc1cn[nH]c(=O)c1C(F)(F)F", "note": "[Example 292, (S)-7-fluoro-2-(4-((6-oxo-5-(trifluoromethyl)-1,6-dihydropyridazin-4-yl)amino)pentyl)-6-(thieno[2,3-d]pyrimidin-2-yl)isoquinolin-1(2H)-one]", "EC50": 16}, {"molecule": "C[C@@H](CCCn1ccc2cc(-c3ccc(Cl)c(N)n3)c(F)cc2c1=O)Nc1cn[nH]c(=O)c1C(F)(F)F", "note": "[Example 293, (S)-6-(6-amino-5-chloropyridin-2-yl)-7-fluoro-2-(4-((6-oxo-5-(trifluoromethyl)-1,6-dihydropyridazin-4-yl)amino)pentyl)isoquinolin-1(2H)-one]", "EC50": 5.28}, {"molecule": "C[C@@H](CCCn1cnc2cc(-c3ccc(Cl)c(N)n3)c(F)cc2c1=O)Nc1cn[nH]c(=O)c1C(F)(F)F", "note": "[Example 294, (S)-7-(6-amino-5-chloropyridin-2-yl)-6-fluoro-3-(4-((6-oxo-5-(trifluoromethyl)-1,6-dihydropyridazin-4-yl)amino)pentyl)quinazolin-4(3H)-one]", "EC50": 28.8}, {"molecule": "C[C@@H](CCCn1ccc2cc(-c3ccc(C#N)c(C(F)(F)F)n3)c(F)cc2c1=O)Nc1cn[nH]c(=O)c1C(F)(F)F", "note": "[Example 295, (S)-6-(7-fluoro-1-oxo-2-(4-((6-oxo-5-(trifluoromethyl)-1,6-dihydropyridazin-4-yl)amino)pentyl)-1,2-dihydroisoquinolin-6-yl)-2-(trifluoromethyl)nicotinonitrile]", "EC50": 2020}]}]}
